Legend:
CYP3A4 = CYP3A4 (Homo sapiens, UniProt P08684); experiment: fluorogenic CYP450 inhibition assay; format: biochemical
CYP2C9 = CYP2C9 (Homo sapiens, UniProt P11712); experiment: in vitro
Sequence of CYP2C9 (P11712 whole entry): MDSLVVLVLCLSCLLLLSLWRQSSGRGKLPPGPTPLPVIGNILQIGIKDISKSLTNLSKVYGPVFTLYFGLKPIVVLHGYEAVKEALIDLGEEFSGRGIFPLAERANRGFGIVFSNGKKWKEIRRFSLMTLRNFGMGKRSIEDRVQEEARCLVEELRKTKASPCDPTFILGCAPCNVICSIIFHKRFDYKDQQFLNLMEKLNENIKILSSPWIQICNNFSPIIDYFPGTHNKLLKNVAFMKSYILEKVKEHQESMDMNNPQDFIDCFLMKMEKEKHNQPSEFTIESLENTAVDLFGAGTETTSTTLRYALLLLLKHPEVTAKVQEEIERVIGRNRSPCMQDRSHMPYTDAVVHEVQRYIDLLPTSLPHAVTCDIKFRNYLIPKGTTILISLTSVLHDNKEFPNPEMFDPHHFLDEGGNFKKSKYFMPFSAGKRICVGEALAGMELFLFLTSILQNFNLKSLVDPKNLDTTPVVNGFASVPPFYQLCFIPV
Sequence of CYP2C9 (P16435 2-677 partner): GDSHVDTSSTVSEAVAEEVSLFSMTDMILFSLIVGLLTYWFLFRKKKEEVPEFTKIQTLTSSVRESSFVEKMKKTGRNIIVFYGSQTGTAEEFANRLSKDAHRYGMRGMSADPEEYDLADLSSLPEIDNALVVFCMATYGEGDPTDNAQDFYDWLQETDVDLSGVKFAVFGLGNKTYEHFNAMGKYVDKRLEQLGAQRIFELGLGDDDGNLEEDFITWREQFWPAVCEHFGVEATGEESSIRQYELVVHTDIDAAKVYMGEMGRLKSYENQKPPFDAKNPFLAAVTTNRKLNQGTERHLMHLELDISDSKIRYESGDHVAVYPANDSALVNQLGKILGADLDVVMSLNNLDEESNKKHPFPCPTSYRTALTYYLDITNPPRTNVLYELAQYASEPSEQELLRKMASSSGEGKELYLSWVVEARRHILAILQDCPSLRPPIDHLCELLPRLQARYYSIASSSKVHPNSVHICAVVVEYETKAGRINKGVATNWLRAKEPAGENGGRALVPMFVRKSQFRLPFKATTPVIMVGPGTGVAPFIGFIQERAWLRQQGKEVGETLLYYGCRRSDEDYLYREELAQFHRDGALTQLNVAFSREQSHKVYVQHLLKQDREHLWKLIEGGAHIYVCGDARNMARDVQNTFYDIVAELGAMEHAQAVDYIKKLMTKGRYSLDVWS

Sequence of CYP3A4 (P08684 2-503): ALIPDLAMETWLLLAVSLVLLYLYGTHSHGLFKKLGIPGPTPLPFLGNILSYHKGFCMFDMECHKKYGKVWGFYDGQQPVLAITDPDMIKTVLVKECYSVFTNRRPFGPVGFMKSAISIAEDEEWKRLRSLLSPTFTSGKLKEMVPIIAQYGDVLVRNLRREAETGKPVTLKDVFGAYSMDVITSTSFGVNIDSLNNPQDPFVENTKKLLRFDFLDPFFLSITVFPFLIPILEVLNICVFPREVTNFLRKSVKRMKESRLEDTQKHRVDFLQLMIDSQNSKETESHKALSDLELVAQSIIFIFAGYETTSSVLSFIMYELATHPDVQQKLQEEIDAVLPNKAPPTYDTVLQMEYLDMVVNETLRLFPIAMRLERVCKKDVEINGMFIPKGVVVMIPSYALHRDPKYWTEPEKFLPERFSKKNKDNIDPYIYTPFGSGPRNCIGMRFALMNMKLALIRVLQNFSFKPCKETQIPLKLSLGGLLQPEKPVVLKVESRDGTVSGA
Sequence of CYP3A4 (P16435 2-677 partner): as the sequence (P16435 2-677 partner) above

Row | SMILES | activity at 0.1 µM (CYP3A4) [%] | activity at 0.25 µM (CYP2C9) [%]
1 | CC(=O)N1CCN(c2ccc(OC[C@H]3CO[C@](Cn4ccnc4)(c4ccc(Cl)cc4Cl)O3)cc2)CC1 (relative stereo) [ketoconazole] | < 40 | –
2 | Nc1ccc(S(=O)(=O)Nc2ccnn2-c2ccccc2)cc1 [sulfaphenazole] | – | ~50

From article PMC5333991 (Journal of biomolecular screening, 2009)
